According to the supplement of paper PMC10307832:

Columns and labels:
Experiment in all cases: relative viability (nuclei count vs DMSO), 5 days (fraction); higher = more cells survive
Nelarabine + Vorinostat = compound: COc1nc(N)nc2c1ncn2[C@@H]1O[C@H](CO)[C@@H](O)[C@@H]1O [Nelarabine] + O=C(CCCCCCC(=O)Nc1ccccc1)NO [Vorinostat] (partner 1 µM)
In short: (§1)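 Relative viability is defined as nuclei in treated wells over nuclei in vehicle wells. Duplicate plates were run and medians reported. Lung cancer cell lines in 1536-well plates were dosed by pin tool one day after seeding, with one drug or with a fixed anchor-drug dose plus five library-drug doses (not always all listed) in √10 steps, and nuclei were counted after 5 days.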

Adavosertib + Crizotinib = compound: C=CCn1c(=O)c2cnc(Nc3ccc(N4CCN(C)CC4)cc3)nc2n1-c1cccc(C(C)(C)O)n1 [Adavosertib] + C[C@@H](Oc1cc(-c2cnn(C3CCNCC3)c2)cnc1N)c1c(Cl)ccc(F)c1Cl [Crizotinib] (partner 1 µM)
In short: as §1

Nelarabine + Bortezomib = compound: COc1nc(N)nc2c1ncn2[C@@H]1O[C@H](CO)[C@@H](O)[C@@H]1O [Nelarabine] + CC(C)C[C@H](NC(=O)[C@H](Cc1ccccc1)NC(=O)c1cnccn1)B(O)O [Bortezomib] (partner 0.002 µM)
In short: as §1

[1] = compound: C=CCn1c(=O)c2cnc(Nc3ccc(N4CCN(C)CC4)cc3)nc2n1-c1cccc(C(C)(C)O)n1 [Adavosertib] + CC(=O)c1c(C)c2cnc(Nc3ccc(N4CCNCC4)cn3)nc2n(C2CCCC2)c1=O [Palbociclib] (partner 0.5 µM)
In short: as §1

Row | Cell Line | relative viability (Nelarabine + Vorinostat; first compound 0.01 µM) | relative viability (Nelarabine + Vorinostat; first compound 0.03162 µM) | relative viability (Nelarabine + Vorinostat; first compound 0.1 µM) | relative viability (Nelarabine + Vorinostat; first compound 0.3162 µM) | relative viability (Nelarabine + Vorinostat; first compound 1 µM) | relative viability (Adavosertib + Crizotinib; first compound 0.01 µM) | relative viability (Adavosertib + Crizotinib; first compound 0.03162 µM) | relative viability (Adavosertib + Crizotinib; first compound 0.1 µM) | relative viability (Adavosertib + Crizotinib; first compound 0.3162 µM) | relative viability (Nelarabine + Bortezomib; first compound 0.01 µM) | relative viability (Nelarabine + Bortezomib; first compound 0.03162 µM) | relative viability (Nelarabine + Bortezomib; first compound 0.1 µM) | relative viability (Nelarabine + Bortezomib; first compound 0.3162 µM) | relative viability (Nelarabine + Bortezomib; first compound 1 µM) | relative viability ([1]; first compound 0.03162 µM) | relative viability ([1]; first compound 0.1 µM) | relative viability ([1]; first compound 0.3162 µM) | relative viability ([1]; first compound 0.01 µM)
1 | PC-3 [JPC-3] | 0.927 | 0.924 | 0.918 | 0.957 | 0.709 | 0.996 | 0.905 | 1.06 | 1 | 1.08 | 0.905 | 0.826 | 0.743 | 0.776 | 0.502 | 0.28 | 0.544 | 
2 | COR-L23 | 0.471 | 0.416 | 0.511 | 0.427 | 0.456 | 0.69 | 0.731 | 0.797 | 0.304 | 1.33 | 1.08 | 1.08 | 0.942 | 0.983 | 0.338 | 0.274 | 0.205 | 0.291
3 | ChaGo-K-1 | 0.972 | 0.645 | 0.723 | 0.741 | 0.771 | 1.05 | 1.05 | 1.21 | 1.12 | 0.997 | 0.85 | 1.26 | 0.93 | 0.925 | 0.949 | 1.01 | 0.885 | 0.884
4 | RERF-LC-KJ | 0.749 | 0.754 | 0.623 | 0.72 | 0.727 | 0.795 | 0.815 | 0.94 | 0.925 | 1.03 | 1.39 | 1.24 | 1.29 | 1.33 | 1.07 | 1.14 | 1.03 | 0.977
5 | HCC-366 | 0.582 | 0.343 | 0.391 | 0.47 | 0.339 | 0.498 | 0.568 | 0.701 | 0.644 | 1.95 | 0.968 | 1.33 | 1.23 | 1.13 | 0.388 | 0.471 | 0.329 | 0.396
6 | NCI-H460 | 1.42 | 1.5 | 0.889 | 1.13 | 0.923 | 0.929 | 0.822 | 1.11 | 0.627 |  | 1.34 | 1.69 | 1.37 | 1.1 | 0.19 | 0.181 | 0.125 | 0.182
7 | NCI-H1915 | 0.599 | 0.544 | 0.488 | 0.573 | 0.57 | 0.941 | 0.812 | 0.981 | 1 | 1.25 | 0.871 | 1.04 | 0.975 | 0.96 | 0.564 | 0.645 | 0.644 | 0.535
8 | COR-L 105 | 0.805 | 0.887 | 0.952 | 1.12 | 0.726 | 0.746 | 0.836 | 0.795 | 0.747 | 1.02 | 0.912 | 0.683 | 0.678 | 0.979 | 0.419 | 0.415 | 0.444 | 0.374
9 | NCI-H441 | 0.749 | 0.814 | 1.02 | 0.886 | 0.793 | 0.751 | 0.637 | 0.838 | 0.568 | 0.357 | 0.71 | 0.613 | 0.519 | 0.567 | 0.25 | 0.241 | 0.197 | 0.234
